In patent US9849100B2, “Pharmaceutical compositions suitable for parenteral administration comprising aqueous suspensions of benzylamine derivatives having low solubilities” (KalVista Pharmaceuticals Limited, priority 2013, dated 2017):
Where two headings read alike, the source gives them in different places.

Tests used:
diabetic rats = conditions: cited from earlier work
[1] = Ocular tissue concentration study at twelve weeks following a single intravitreal dose in pigmented rabbits; type: in vivo; conditions: both sexes, Dutch-belted, rabbit, other: intravitreal, single bilateral intravitreal dose of suspension, Day 86
Procedure: An aqueous suspension pharmaceutical composition of milled N—[(R)-1-[(S)-1-(4-aminomethyl-benzylcarbamoyl)-2-phenyl-ethylcarbamoyl]-2-(4-ethoxy-phenyl)-ethyl]-benzamide hydrochloride was prepared according to Example B1. The resulting nominal 50 mg/mL suspension was diluted with the milling vehicle (prepared according to Example B1) into dosing formulations for intravitreal injection. Five experimentally naïve male and female Dutch-belted rabbits, approximately 5 months old and weighing 1.6 to 2.2 kilograms at the outset of the study were assigned to treatment groups as shown in Table iv. [table] Animals were administered bilateral intravitreal doses of the suspension formulations once on Day 1. On Day 86, the vitreous humors and retina (with choroid) tissues were analysed for active ingredient concentration.

Row | SMILES | retinal blood flow abnormalities (diabetic rats) | retinal vascular permeability (diabetic rats) | concentration at 86 day ([1]; retina (with choroid), 15 μg/eye, low-dose group (15 μg/eye), read-out: average retina (with choroid) tissue concentration) [ng/g] | concentration at 86 day ([1]; retina (with choroid), 150 μg/eye, high-dose group (150 μg/eye), read-out: average retina (with choroid) tissue concentration) [ng/g] | concentration at 86 day ([1]; vitreous humor, 15 μg/eye, low-dose group (15 μg/eye), read-out: vitreous humor concentrations (range)) [ng/mL] | concentration at 86 day ([1]; vitreous humor, 150 μg/eye, high-dose group (150 μg/eye), read-out: average vitreous humor concentration) [ng/mL] | concentration at 86 day ([1]; vitreous humor, 150 μg/eye, high-dose group (150 μg/eye), read-out: vitreous humor concentrations (range)) [ng/mL]
1 | N=C(N)c1ccc(CNC(=O)c2cnn(Cc3ccccc3)c2)cc1 [ASP-440] | ameliorated | ameliorated |  |  |  |  | 
2 | CCOc1ccc(C[C@@H](NC(=O)c2ccccc2)C(=O)N[C@@H](Cc2ccccc2)C(=O)NCc2ccc(CN)cc2)cc1 [active ingredient, N—[(R)-1-[(S)-1-(4-aminomethyl-benzylcarbamoyl)-2-phenyl-ethylcarbamoyl]-2-(4-ethoxy-phenyl)-ethyl]-benzamide] |  |  | 1620 | 44500 | 0.216 to 935 | 27800 | 2500 to 56500
